{
  "source": "patent US12009562B2",
  "about": "“High solubility iron hexacyanides” (Lockheed Martin Energy, LLC, priority 2012, dated 2024)",
  "origin": "cited, not measured here",
  "data": [
    {"compound": "O.O.O.O.O.O.O.O.O.O.[C-]#N.[C-]#N.[C-]#N.[C-]#N.[C-]#N.[C-]#N.[Fe+2].[Na+].[Na+].[Na+].[Na+]", "note": "[Na4Fe(CN)6.10H2O]", "values": [
      {"measurement": "concentration reported upon saturating 2 M NaOH", "value": "~0.6", "unit": "M"}
    ]}
  ]
}
